Results as given in PubChem BioAssay (NCI).
Several values for one entry are separate records, joined by “and”; a condition that tells them apart may be missing. Equal entries are not always repeated.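 Dose response: 5 concentrations. Exposure: 48 h. Format: 96-well plates. Endpoint: linear interpolation; highest concentration if not reached. Abbreviation: GI50, concentration required for 50% inhibition of growth. The concentration for full growth arrest is given as TGI.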

The molecules below were run on MDA-MB-468 breast (assay: inhibition of tumour cell growth, NCI panel, 48 h).
Work on `N#Cc1nc(-c2ccccc2)oc1S(=O)(=O)N1CCN(CCc2ccccn2)CC1` yielded a GI50 of 1600 nM and a TGI of 3450 nM. `CC[C@H](C)[C@H](NC(=O)c1ncccn1)C(=O)N(C)[C@H](C[C@@H](OC(C)=O)c1nc(C(=O)N[C@@H](Cc2ccccc2)C[C@H](C)C(=O)OC)cs1)C(C)C` gave a GI50 of 757 nM and a TGI greater than 25000 nM. For `Cc1cc(C)c([I+]c2c(C)cc(C)cc2C)c(C)c1`, the GI50 was 134 nM and the TGI was 672 nM. `O=C(N/N=C\c1ccc(N(CCCl)CCCl)cc1)c1cccnc1` showed a GI50 of 11000 nM and a TGI of 59600 nM. Molecule `COc1cc(OCCCN2CCCC2)ccc1Nc1ncc(Cl)c(Nc2ccccc2P(C)(C)=O)n1` has a GI50 of 1220 nM and a TGI of 3640 nM. For `CCOc1ccc(Nc2ccnc3cc(Cl)ccc23)cc1`, the GI50 was 43100 nM and the TGI was greater than 100000 nM. In the case of `O=C(Nc1ccc(Cl)cc1)c1cc(NCc2cc(O)ccc2O)ccc1O`, the GI50 is reported as 4810 nM and the TGI is reported as 26600 nM. `O=C(N/N=C/c1ccc([N+](=O)[O-])cc1)c1ccccc1Nc1ccnc(C(F)(F)F)c1` showed a GI50 of 15800 nM and a TGI of 41300 nM. `COc1nc2c(c(=O)n1C)CN(c1ccccc1)C(=O)CN2C` was tested, and the GI50 was 13300 nM and the TGI was 80900 nM. Molecule `Cn1cc(-c2ncnc3ccc(-c4cnc(Cl)c(NS(C)(=O)=O)c4)cc23)c2ccccc21` has a GI50 of 183 nM and a TGI of 2350 nM. `COc1ccc(-c2oc3ncnc(N)c3c2-c2ccc(NC(=O)Nc3cc(C(F)(F)F)ccc3F)cc2)cc1` gave a GI50 of 903 nM and a TGI of 2310 nM. `N#Cc1c(N)c(C(=O)c2ccc3c(c2)OCCO3)n2c1CCCC2` showed a GI50 of 2470 nM and a TGI of 23700 nM. In the case of `CC1(C)N=C(N)N=C(N)N1c1cccc(CCCCc2ccc(Cl)c(S(=O)(=O)F)c2)c1`, the GI50 is reported as 10600 nM and the TGI is reported as 24500 nM. `COc1ccc2c(c1)C(=O)/C(=C/c1ccc(O)cc1)O2` was tested, and the GI50 was 2400 nM and the TGI was 12400 nM. `CCCCNC(=O)Oc1ccc(/C(=C(\C)c2ccc(OC)cc2)c2ccc(OCCN3CCCCC3)cc2)cc1` gave a GI50 of 2080 nM and a TGI of 5070 nM. `CO[C@H]1/C=C/O[C@@]2(C)Oc3c(C)c(O)c4c(O)c(c(/C=N/N5C(C)CN(Cc6ccc(C#N)cc6)CC5C)c(O)c4c3C2=O)NC(=O)/C(C)=C\C=C\[C@H](C)[C@H](O)[C@@H](C)[C@@H](O)[C@@H](C)[C@H](OC(C)=O)[C@@H]1C` (stereo partly drawn) was tested, and the GI50 was 11000 nM and the TGI was 39900 nM. Molecule `C=C[C@@H]1CCC/C=C/[C@@H]2C[C@H](O)C[C@H]2[C@H](O)/C=C/C(=O)O1` has a GI50 of 216 nM and a TGI of 611 nM. Work on `FC(F)(F)c1cccc(Oc2ccc(Nc3ncnc4ccc(OCCCN5CCOCC5)cc34)cc2Cl)c1` yielded a GI50 of 480 nM and a TGI of 2850 nM. With `O=C1NN(C(=O)c2ccccc2)C(c2ccc(Cl)c(Cl)c2)=C/C1=C\c1ccccc1[N+](=O)[O-]` the GI50 was 6140 nM and the TGI was greater than 6750 nM. `COc1ccc2cc(C(=O)N3CCC([C@@H](C)C(=O)NCc4ccc5c(c4)OCO5)CC3)[nH]c2c1` showed a GI50 of 86200 nM and a TGI greater than 100000 nM. Molecule `C#Cc1cccc(Nc2nc(C)nc3cc(NC(=O)CCl)ccc23)c1` has a GI50 of 770 nM and a TGI of 2180 nM. In the case of `C[C@]1(c2nc3c(C(N)=O)cccc3[nH]2)CCCN1`, the GI50 is reported as 29700 nM and the TGI is reported as greater than 100000 nM. For `Cc1cccc2c(=O)c3c(sc12)c(NCCCN)nc1ccccc13`, the GI50 was 1430 nM and the TGI was 2940 nM. For `O=c1cc(-c2ccccc2)oc2c(O)c(O)ccc12`, the GI50 was 14300 nM and the TGI was 79200 nM. Work on `COc1cc2nc(Cl)nc(Nc3cccc(C4=Nc5c(N)nc(N)nc5NC(c5ccc(F)cc5)C4)c3)c2cc1OC` (stereo not drawn) yielded a GI50 of 1790 nM and a TGI of 3390 nM. For `NC(=O)c1ccc(I)c([N+](=O)[O-])c1`, the GI50 was 24400 nM and the TGI was greater than 65600 nM. Molecule `COc1ccc(-c2c(NC(=O)Nc3ccc(Cl)c(C(F)(F)F)c3)cnn2-c2ccc(S(N)(=O)=O)cc2)cc1` has a GI50 of 2050 nM and a TGI of 6880 nM. Molecule `CC1(C)CC[C@]2(C(=O)NCCNCCN)CC[C@]3(C)C(=CC[C@@H]4[C@@]5(C)CCC(=O)C(C)(C)[C@@H]5CC[C@]43C)[C@@H]2C1` has a GI50 of 1710 nM and a TGI of 3290 nM. `Oc1c(CN2CCCCC2)ccc2cccnc12` showed a GI50 of 4890 nM and a TGI of 22400 nM. In the case of `O=c1oc2ccc(F)cc2c(=O)n1-c1ccc(I)cc1F`, the GI50 is reported as 375 nM and the TGI is reported as 2450 nM. With `N[C@@H](Cc1c[nH]c2ccccc12)C(=O)NC1CCN(Cc2c[nH]c3ccc(Cl)cc23)CC1` the GI50 was 2430 nM and the TGI was 5740 nM. `COC(=O)[C@@H](C)C[C@H](Cc1ccc(F)cc1)NC(=O)c1csc([C@@H](C[C@H](C(C)C)N(C)C(=O)[C@@H](NC(=O)[C@H]2CCCCN2C)C2CC2)OC(C)=O)n1` showed a GI50 of 138 nM and a TGI greater than 25000 nM. `CCCCCCCCCCCCCCCCCC1=NC(C)(C)CN1C(C)(C)CO` gave a GI50 of 1210 nM and a TGI of 2560 nM. With `COC(=O)[C@@H](C)C[C@H](Cc1ccccc1)NC(=O)c1csc([C@@H](C[C@H](C(C)C)N(C)C(=O)[C@@H](NC(=O)[C@H]2CCCCN2C)c2ccc(F)cc2)OC(C)=O)n1` the GI50 was 4.17 nM and 2.5 nM and 16.3 nM and the TGI was 25000 nM and > 100000 nM. In the case of `Nc1ccccc1NC(=O)c1ccc(NC(=O)C/C=C/c2cccnc2)cc1`, the GI50 is reported as 915 nM and the TGI is reported as 2660 nM. `NC(CCl)=NCC12CC3CC(CC(C3)C1)C2` showed a GI50 of 827 nM and a TGI of 6950 nM. `CCCCCCCC(=O)Nc1nc2[nH]c(CN3CCN(Cc4cccc(I)c4)CC3)c(CN3CCN(Cc4cccc(I)c4)CC3)c2c(=O)[nH]1` was tested, and the GI50 was 858 nM and the TGI was 1640 nM. `COC1=CC(c2ccc[nH]2)=N/C1=C\c1[nH]c(C)c(CC(=O)NCc2ccccc2)c1C` gave a GI50 of 1170 nM and a TGI of 2630 nM. Molecule `COc1cc(-c2n/c(=C\c3c(O)[nH]c4ccccc34)cc3c2=Nc2ccccc2-3)ccc1F` has a GI50 of 2610 nM and a TGI of 16700 nM.
